Measurements published in DBAASP.
≈ marks a conversion by molar mass, not a printed value.

Columns and labels:
Assay in all cases: ≥ marks a high value that may be exact or a test limit, other limits are often not marked, values filed in µg/mL are converted to µM
[1] = test system: Staphylococcus aureus USA 300 LAC
[2] = test system: Escherichia coli ATCC 25922
[3] = test system: Klebsiella pneumoniae ATCC 13883
[4] = test system: Staphylococcus epidermidis ATCC 12228
[5] = test system: Lacticaseibacillus rhamnosus 7469
[6] = test system: Staphylococcus aureus ATCC 29213
[7] = test system: Salmonella enterica subsp. enterica serovar Typhimurium ATCC 14028
[8] = test system: Salmonella enterica subsp. enterica serovar Typhimurium C77-31
[9] = test system: Escherichia coli UB1005
[10] = test system: Streptococcus agalactiae CICC 10465
[11] = test system: Streptococcus thermophilus YM-C
[12] = test system: Salmonella enterica subsp. enterica serovar Pullorum ATCC 7913
[13] = test system: Staphylococcus aureus ATCC 25923
[14] = test system: Streptococcus agalactiae
[15] = test system: Pseudomonas aeruginosa ATCC 27853
[16] = test system: Escherichia coli 078
[17] = test system: Escherichia coli NBRC 3972
[18] = test system: Aspergillus oryzae NBRC 100959
[19] = test system: Micrococcus luteus NBRC 3333
[20] = test system: Candida viswanathii NBRC 10321
[21] = test system: Staphylococcus epidermidis NBRC 12993
[22] = test system: Pseudomonas aeruginosa CCARM 2095
[23] = test system: Salmonella typhimurium KCTC 1926
[24] = test system: Staphylococcus aureus KCTC 1621
[25] = test system: Pseudomonas aeruginosa KCTC 1637
[26] = test system: Bacillus subtilis KCTC 3068
[27] = test system: Escherichia coli CCARM 1229
[28] = test system: Enterococcus faecalis KCTC 2011
[29] = test system: Salmonella typhimurium CCARM 8009
[30] = test system: Escherichia coli KCTC 1682
[31] = test system: Acinetobacter baumannii CCARM 12035
[32] = test system: Enterococcus faecalis PCM 2673
[33] = test system: Candida albicans ATCC 10231
[34] = test system: Pseudomonas aeruginosa ATCC 9027

For `CC[C@H](C)[C@H](NC(=O)[C@H](CCCCN)NC(=O)[C@H](CCCN=C(N)N)NC(=O)[C@H](CC(C)C)NC(=O)[C@@H](N)Cc1c[nH]c2ccccc12)C(=O)N[C@@H](Cc1c[nH]c2ccccc12)C(=O)N[C@@H](Cc1c[nH]c2ccccc12)C(=O)N[C@@H](Cc1c[nH]c2ccccc12)C(N)=O` [WLRKIWWW], which MIC [1] is on record?
The MIC was 4.38 µM (≈ 5.58 µg/mL).

What about the MIC [2] of the same molecule?
Its MIC is 17.7 µM (≈ 22.5 µg/mL).

What about the MIC [3] of the same molecule?
Its MIC is 25 µM (≈ 31.8 µg/mL).

How did the MIC [4] turn out when `CC[C@H](C)[C@H](NC(=O)[C@H](CC(C)C)NC(=O)[C@@H](NC(=O)[C@@H](N)CC(=O)O)[C@@H](C)CC)C(=O)N[C@H](C(=O)N[C@H](C(=O)NCC(=O)NCC(=O)N[C@@H](CCCCN)C(=O)N[C@@H](CCC(N)=O)C(=O)N[C@@H](CCCN=C(N)N)C(=O)N[C@@H](CCCCN)C(=O)N[C@@H](CCCCN)C(=O)N[C@@H](CCCN=C(N)N)C(=O)N[C@@H](CCCN=C(N)N)C(=O)N[C@@H](CCCN=C(N)N)C(N)=O)C(C)C)[C@@H](C)CC` [DILIIVGGKQRKKRRR] was run?
Its MIC is 4 µM (≈ 7.74 µg/mL).

And the MIC [5]?
The MIC was ≥ 32 µM.

What about the MIC [6] of the same molecule?
Its MIC is 4 µM (≈ 7.74 µg/mL).

And the MIC [7]?
Its MIC is 4 µM (≈ 7.74 µg/mL).

And the MIC [8]?
The MIC was 4 µM (≈ 7.74 µg/mL).

And the MIC [9]?
The MIC was 8 µM (≈ 15.5 µg/mL).

And the MIC [10]?
The MIC was 2 µM (≈ 3.87 µg/mL).

What about the MIC [11] of the same molecule?
Its MIC is ≥ 64 µM.

What about the MIC [12] of the same molecule?
The MIC was 8 µM (≈ 15.5 µg/mL).

What about the MIC [2] of the same molecule?
The MIC was 4 µM (≈ 7.74 µg/mL).

What about the MIC [13] of the same molecule?
Its MIC is 8 µM (≈ 15.5 µg/mL).

And the MIC [14]?
Its MIC is 5.66 µM (≈ 10.9 µg/mL).

What about the MIC [15] of the same molecule?
The MIC was 4 µM (≈ 7.74 µg/mL).

And the MIC [16]?
Its MIC is 4 µM (≈ 7.74 µg/mL).

`CC[C@H](C)[C@H](NC(=O)[C@H](CC(C)C)NC(=O)[C@@H](NC(=O)[C@@H](N)CC(=O)O)[C@@H](C)CC)C(=O)N[C@H](C(=O)N[C@H](C(=O)NCC(=O)NCC(=O)N[C@@H](CCCN=C(N)N)C(=O)N[C@@H](CCCN=C(N)N)C(=O)N[C@@H](CCCN=C(N)N)C(=O)N[C@@H](CCCN=C(N)N)C(=O)N[C@@H](CCCN=C(N)N)C(=O)N[C@@H](CCCN=C(N)N)C(N)=O)C(C)C)[C@@H](C)CC` [DILIIVGGRRRRRR] was tested. Which MIC [4] did it give?
The MIC was 2 µM (≈ 3.47 µg/mL).

What about the MIC [5] of the same molecule?
The MIC was ≥ 64 µM.

What about the MIC [6] of the same molecule?
Its MIC is 2 µM (≈ 3.47 µg/mL).

And the MIC [7]?
The MIC was > 64 µM.

What about the MIC [8] of the same molecule?
Its MIC is ≥ 64 µM.

What about the MIC [9] of the same molecule?
Its MIC is 16 µM (≈ 27.8 µg/mL).

What about the MIC [10] of the same molecule?
The MIC was 2 µM (≈ 3.47 µg/mL).

What about the MIC [11] of the same molecule?
Its MIC is ≥ 64 µM.

What about the MIC [12] of the same molecule?
Its MIC is 8 µM (≈ 13.9 µg/mL).

What about the MIC [2] of the same molecule?
Its MIC is 16 µM (≈ 27.8 µg/mL).

And the MIC [13]?
Its MIC is > 64 µM.

What about the MIC [14] of the same molecule?
The MIC was 5.66 µM (≈ 9.82 µg/mL).

What about the MIC [15] of the same molecule?
The MIC was > 64 µM.

And the MIC [16]?
Its MIC is ≥ 32 µM.

Which MIC [17] does the source give for `CC[C@H](C)[C@H](NC(=O)[C@H](CCCCN)NC(=O)[C@@H](N)CCCN=C(N)N)C(=O)N[C@@H](CCCCN)C(=O)N[C@@H](CCCN=C(N)N)C(=O)N[C@@H](Cc1ccc(O)cc1)C(=O)N[C@@H](CC(C)C)C(=O)N[C@@H](CCCN=C(N)N)C(=O)N[C@@H](CCCN=C(N)N)C(=O)N[C@@H](CCSC)C(=O)N[C@H](C(=O)N[C@H](C(=O)N[C@H](C(=O)N[C@@H](Cc1c[nH]c2ccccc12)C(=O)O)[C@@H](C)CC)[C@@H](C)CC)[C@@H](C)CC` [RKIKRYLRRMIIIW] here?
The MIC was ≥ 411 µM.

What about the MIC [18] of the same molecule?
The MIC was 12.9 µM (≈ 25 µg/mL).

What about the MIC [19] of the same molecule?
Its MIC is 25.7 µM (≈ 50 µg/mL).

What about the MIC [20] of the same molecule?
The MIC was 25.7 µM (≈ 50 µg/mL).

What about the MIC [21] of the same molecule?
Its MIC is 12.9 µM (≈ 25 µg/mL).

How did the MIC [1] turn out when `CC[C@H](C)[C@H](NC(=O)[C@H](CCCCN)NC(=O)[C@H](CCCN=C(N)N)NC(=O)[C@@H](N)CC(C)C)C(=O)N[C@@H](Cc1c[nH]c2ccccc12)C(=O)N[C@@H](Cc1c[nH]c2ccccc12)C(=O)N[C@@H](Cc1c[nH]c2ccccc12)C(=O)N[C@@H](Cc1c[nH]c2ccccc12)C(N)=O` [LRKIWWWW] was run?
The MIC was 4.38 µM (≈ 5.58 µg/mL).

And the MIC [2]?
The MIC was 12.5 µM (≈ 15.9 µg/mL).

What about the MIC [3] of the same molecule?
The MIC was 8.8 µM (≈ 11.2 µg/mL).

Which results are given for `CC[C@H](C)[C@H](NC(=O)CNC(=O)[C@H](CC(=O)O)NC(=O)[C@H](CCCN=C(N)N)NC(=O)[C@@H](NC(=O)[C@H](CC(N)=O)NC(=O)[C@H](CCCN=C(N)N)NC(=O)CNC(=O)[C@@H](NC(=O)[C@H](CCCCN)NC(=O)[C@H](CCC(=O)O)NC(=O)[C@@H](NC(=O)[C@H](CCCCN)NC(=O)[C@H](CCCCN)NC(=O)[C@H](Cc1ccccc1)NC(=O)[C@@H](NC(=O)[C@H](CCCCN)NC(=O)[C@H](Cc1c[nH]c2ccccc12)NC(=O)[C@@H](N)CCCN=C(N)N)[C@@H](C)CC)[C@@H](C)CC)C(C)C)C(C)C)C(=O)N[C@H](C(=O)N[C@@H](CCCCN)C(=O)N[C@@H](C)C(N)=O)[C@@H](C)CC` [RWKIFKKIEKVGRNVRDGIIKA]?
MIC [22]: 2 µM (≈ 5.31 µg/mL); MIC [23]: 2 µM (≈ 5.31 µg/mL); MIC [24]: 8 µM (≈ 21.2 µg/mL); MIC [25]: 2 µM (≈ 5.31 µg/mL); MIC [26]: 8 µM (≈ 21.2 µg/mL); MIC [27]: 4 µM (≈ 10.6 µg/mL); MIC [28]: ≥ 64 µM; MIC [29]: 2 µM (≈ 5.31 µg/mL); MIC [30]: 1 µM (≈ 2.65 µg/mL); MIC [31]: 2 µM (≈ 5.31 µg/mL)

`CC[C@H](C)[C@H](NC(=O)[C@H](CCCCN)NC(=O)[C@H](CCCCN)NC(=O)[C@@H](NC(=O)[C@@H](NC(=O)[C@H](CC(=O)O)NC(=O)[C@H](Cc1ccccc1)NC(=O)[C@H](CC(C)C)NC(=O)CN)[C@@H](C)CC)[C@@H](C)CC)C(=O)N[C@@H](C)C(=O)N[C@@H](C)C(=O)N[C@@H](CO)C(=O)N[C@@H](Cc1ccccc1)C(N)=O` [GLFDIIKKIAASF] was tested. Which MIC [32] did it give?
Its MIC is 22.5 µM (≈ 32 µg/mL).

And the MIC [33]?
Its MIC is 22.5 µM (≈ 32 µg/mL).

And the MIC [34]?
The MIC was 45 µM (≈ 64 µg/mL).

And the MIC [2]?
The MIC was 11.2 µM (≈ 16 µg/mL).

What about the MIC [13] of the same molecule?
Its MIC is 22.5 µM (≈ 32 µg/mL).

Which results are given for `CC[C@H](C)[C@H](NC(=O)CNC(=O)[C@H](CC(=O)O)NC(=O)[C@H](CCCN=C(N)N)NC(=O)[C@@H](NC(=O)[C@H](CC(N)=O)NC(=O)[C@H](CCCN=C(N)N)NC(=O)CNC(=O)[C@@H](NC(=O)[C@H](CCCCN)NC(=O)[C@H](CCC(=O)O)NC(=O)[C@@H](NC(=O)[C@H](CCCCN)NC(=O)[C@H](CCCCN)NC(=O)[C@H](C)NC(=O)[C@@H](NC(=O)[C@H](CCCCN)NC(=O)[C@H](Cc1c[nH]c2ccccc12)NC(=O)[C@@H](N)CCCN=C(N)N)[C@@H](C)CC)[C@@H](C)CC)C(C)C)C(C)C)C(=O)N[C@H](C(=O)N[C@@H](CCCCN)C(=O)N[C@@H](C)C(N)=O)[C@@H](C)CC` [RWKIAKKIEKVGRNVRDGIIKA]?
MIC [22]: 8 µM (≈ 20.6 µg/mL); MIC [23]: 2 µM (≈ 5.16 µg/mL); MIC [24]: 16 µM (≈ 41.3 µg/mL); MIC [25]: 2 µM (≈ 5.16 µg/mL); MIC [26]: 16 µM (≈ 41.3 µg/mL); MIC [27]: 2 µM (≈ 5.16 µg/mL); MIC [28]: ≥ 128 µM; MIC [29]: 4 µM (≈ 10.3 µg/mL); MIC [30]: 1 µM (≈ 2.58 µg/mL); MIC [31]: 8 µM (≈ 20.6 µg/mL)
